PubChem BioAssay AID2060506 (Molecular Pharmacology Branch, DTP, NCI, 2025)

Test system: 598228-144-R-J1-PDC complex spheroid viability
Assay: Anticancer human tumor 598228-144-R-J1-PDC patient-derived serous endometrial adenocarcinoma cell line growth inhibition [GQUAD]
Conditions: for IC50: curve of first compound; for viability, T/C: stronger effect = lower value
In short: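 Multi-cell-type spheroids of tumor cells with HUVEC and mesenchymal stem cells, treated with drug combinations. Concentrations descend in half-log steps from near clinical Cmax, or from 10 microM where Cmax is unknown; viability read-out.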

[1] = second compound 0.0316 µM, first compound 0.0316 µM
[2] = second compound 0.0316 µM, first compound 0.1 µM
[3] = second compound 0.0316 µM, first compound 0.316 µM
[4] = second compound 0.0316 µM, first compound 1 µM
[5] = second compound 0.0316 µM, first compound 3.16 µM
[6] = second compound 0.0316 µM, first compound 10 µM
[7] = second compound 0.1 µM, first compound 0.0316 µM
[8] = second compound 0.1 µM, first compound 0.1 µM
[9] = second compound 0.1 µM, first compound 0.316 µM
[10] = second compound 0.1 µM, first compound 1 µM
[11] = second compound 0.1 µM, first compound 3.16 µM
[12] = second compound 0.1 µM, first compound 10 µM
[13] = second compound 0.316 µM, first compound 0.0316 µM
[14] = second compound 0.316 µM, first compound 0.1 µM
[15] = second compound 0.316 µM, first compound 0.316 µM
[16] = second compound 0.316 µM, first compound 1 µM
[17] = second compound 0.316 µM, first compound 3.16 µM
[18] = second compound 0.316 µM, first compound 10 µM
[19] = second compound 1 µM, first compound 0.0316 µM
[20] = second compound 1 µM, first compound 0.1 µM
[21] = second compound 1 µM, first compound 0.316 µM
[22] = second compound 1 µM, first compound 1 µM
[23] = second compound 1 µM, first compound 3.16 µM
[24] = second compound 1 µM, first compound 10 µM
[25] = second compound 3.16 µM, first compound 0.0316 µM
[26] = second compound 3.16 µM, first compound 0.1 µM
[27] = second compound 3.16 µM, first compound 0.316 µM
[28] = second compound 3.16 µM, first compound 1 µM
[29] = second compound 3.16 µM, first compound 3.16 µM
[30] = second compound 3.16 µM, first compound 10 µM
[31] = second compound 10 µM, first compound 0.0316 µM
[32] = second compound 10 µM, first compound 0.1 µM
[33] = second compound 10 µM, first compound 0.316 µM
[34] = second compound 10 µM, first compound 1 µM
[35] = second compound 10 µM, first compound 3.16 µM
[36] = second compound 10 µM, first compound 10 µM
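Also: spheroids exposed to the agents for one week before reading.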
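For viability, T/C in this document: percent of vehicle DMSO control viability so 100% = untreated growth.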

For `COc1ccc([C@@H](O)c2cc(-c3ncnc4cc(N5CCOCC5)ccc34)c(F)cc2Cl)nn1` + Cc1cnc(CNC(=O)c2c(=O)c3ccc(N4CCCN(C)CC4)nc3n3c2sc2ccccc23)cn1, the IC50 (second compound 0.0316 µM) was 2.71 µM, the IC50 (second compound 0.1 µM) was 1.44 µM and the IC50 (second compound 0.316 µM) was 1.04 µM. It also gave an IC50 (second compound 1 µM) of 0.794 µM, an IC50 (second compound 3.16 µM) of less than 0.0316 µM and an IC50 (second compound 10 µM) of less than 0.0316 µM. It also gave a viability, T/C [1] of 105%, a viability, T/C [2] of 80.9% and a viability, T/C [3] of 66.6%. It also gave a viability, T/C [4] of 66.5%, a viability, T/C [5] of 52.3% and a viability, T/C [6] of 33.9%. The viability, T/C [7] was 67%, the viability, T/C [8] was 70.4% and the viability, T/C [9] was 64.3%. For the same compound, the viability, T/C [10] was 51.7%, the viability, T/C [11] was 43.5% and the viability, T/C [12] was 33%. For the same compound, the viability, T/C [13] was 63.2%, the viability, T/C [14] was 63.5% and the viability, T/C [15] was 62.7%. It also gave a viability, T/C [16] of 49.1%, a viability, T/C [17] of 35.3% and a viability, T/C [18] of 25.5%. It also gave a viability, T/C [19] of 65.9%, a viability, T/C [20] of 61.6% and a viability, T/C [21] of 51.6%. It also gave a viability, T/C [22] of 46.1%, a viability, T/C [23] of 42% and a viability, T/C [24] of 14.2%. It also gave a viability, T/C [25] of 50%, a viability, T/C [26] of 36.8% and a viability, T/C [27] of 41.9%. For the same compound, the viability, T/C [28] was 31.6%, the viability, T/C [29] was 20.9% and the viability, T/C [30] was 0.39%. For the same compound, the viability, T/C [31] was 35.2%, the viability, T/C [32] was 40.2% and the viability, T/C [33] was 19.1%. For the same compound, the viability, T/C [34] was 0.71%, the viability, T/C [35] was 0.33% and the viability, T/C [36] was 0.26%.

Work on `Cc1[nH]c2ccccc2c1CCNCc1ccc(/C=C/C(=O)NO)cc1` + Cc1[nH]c2ccc(F)cc2c1-c1nc2c3cccnc3c3ncccc3c2[nH]1 yielded an IC50 (second compound 0.0316 µM) of 0.0629 µM, an IC50 (second compound 0.1 µM) of 0.063 µM and an IC50 (second compound 0.316 µM) of 0.058 µM. For the same compound, the IC50 (second compound 1 µM) was 0.0239 µM, the IC50 (second compound 3.16 µM) was less than 0.000999 µM and the IC50 (second compound 10 µM) was 0.0391 µM. For the same compound, the viability, T/C (second compound 0.0316 µM, first compound 0.000999 µM) was 110%, the viability, T/C (second compound 0.0316 µM, first compound 0.00316 µM) was 115% and the viability, T/C (second compound 0.0316 µM, first compound 0.00999 µM) was 131%. It also gave a viability, T/C [1] of 82.5%, a viability, T/C (second compound 0.0316 µM, first compound 0.0999 µM) of 28% and a viability, T/C [3] of 0.83%. For the same compound, the viability, T/C (second compound 0.1 µM, first compound 0.000999 µM) was 111%, the viability, T/C (second compound 0.1 µM, first compound 0.00316 µM) was 108% and the viability, T/C (second compound 0.1 µM, first compound 0.00999 µM) was 103%. For the same compound, the viability, T/C [7] was 77.8%, the viability, T/C (second compound 0.1 µM, first compound 0.0999 µM) was 31.4% and the viability, T/C [9] was 1.46%. The viability, T/C (second compound 0.316 µM, first compound 0.000999 µM) was 107%, the viability, T/C (second compound 0.316 µM, first compound 0.00316 µM) was 108% and the viability, T/C (second compound 0.316 µM, first compound 0.00999 µM) was 90.2%. For the same compound, the viability, T/C [13] was 73.5%, the viability, T/C (second compound 0.316 µM, first compound 0.0999 µM) was 30.1% and the viability, T/C [15] was 0.7%. The viability, T/C (second compound 1 µM, first compound 0.000999 µM) was 71.8%, the viability, T/C (second compound 1 µM, first compound 0.00316 µM) was 58% and the viability, T/C (second compound 1 µM, first compound 0.00999 µM) was 62.6%. For the same compound, the viability, T/C [19] was 47.1%, the viability, T/C (second compound 1 µM, first compound 0.0999 µM) was 22.4% and the viability, T/C [21] was 0.79%. It also gave a viability, T/C (second compound 3.16 µM, first compound 0.000999 µM) of 32.2%, a viability, T/C (second compound 3.16 µM, first compound 0.00316 µM) of 32.8% and a viability, T/C (second compound 3.16 µM, first compound 0.00999 µM) of 41.1%. The viability, T/C [25] was 32.7%, the viability, T/C (second compound 3.16 µM, first compound 0.0999 µM) was 25.1% and the viability, T/C [27] was 0.97%. The viability, T/C (second compound 10 µM, first compound 0.000999 µM) was 84.1%, the viability, T/C (second compound 10 µM, first compound 0.00316 µM) was 64.8% and the viability, T/C (second compound 10 µM, first compound 0.00999 µM) was 79.1%. For the same compound, the viability, T/C [31] was 48.3%, the viability, T/C (second compound 10 µM, first compound 0.0999 µM) was 33.6% and the viability, T/C [33] was 0.53%.

`C#Cc1c(F)ccc2cc(O)cc(-c3ncc4c(N5CC6CCC(C5)N6)nc(OCC56CCCN5CC(F)C6)nc4c3F)c12` (stereo unspecified) + Cc1cnc(CNC(=O)c2c(=O)c3ccc(N4CCCN(C)CC4)nc3n3c2sc2ccccc23)cn1 showed an IC50 (second compound 0.0316 µM) greater than 10 µM, an IC50 (second compound 0.1 µM) greater than 10 µM and an IC50 (second compound 0.316 µM) greater than 10 µM. It also gave an IC50 (second compound 1 µM) of 8.91 µM, an IC50 (second compound 3.16 µM) of 0.0316 µM and an IC50 (second compound 10 µM) of less than 0.0316 µM. The viability, T/C [1] was 99.8%, the viability, T/C [2] was 88.6% and the viability, T/C [3] was 85.6%. For the same compound, the viability, T/C [4] was 83.2%, the viability, T/C [5] was 101% and the viability, T/C [6] was 81.7%. For the same compound, the viability, T/C [7] was 64.3%, the viability, T/C [8] was 77.7% and the viability, T/C [9] was 71.6%. The viability, T/C [10] was 63.7%, the viability, T/C [11] was 69.7% and the viability, T/C [12] was 68.7%. For the same compound, the viability, T/C [13] was 75%, the viability, T/C [14] was 58.8% and the viability, T/C [15] was 62.7%. The viability, T/C [16] was 55.4%, the viability, T/C [17] was 69.9% and the viability, T/C [18] was 53.1%. The viability, T/C [19] was 57%, the viability, T/C [20] was 53.4% and the viability, T/C [21] was 54%. The viability, T/C [22] was 58.9%, the viability, T/C [23] was 52.4% and the viability, T/C [24] was 46.1%. The viability, T/C [25] was 46.5%, the viability, T/C [26] was 50.9% and the viability, T/C [27] was 46.8%. The viability, T/C [28] was 40.5%, the viability, T/C [29] was 52.2% and the viability, T/C [30] was 27.9%. It also gave a viability, T/C [31] of 25.5%, a viability, T/C [32] of 30.3% and a viability, T/C [33] of 20.4%. The viability, T/C [34] was 24.2%, the viability, T/C [35] was 7.19% and the viability, T/C [36] was 0.48%.
